# Measured values published in PubChem BioAssay (NCI).
#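 Protocol summary: plate cells (96-well), add compound at 5 concentrations, incubate 48 h, interpolate endpoints linearly. GI50 marks 50% less growth. The concentration for full growth arrest is given as TGI.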
# Columns and labels:
# Assay in all cases: NCI tumour cell line growth inhibition, 48 h
# ACHN renal = system: ACHN renal
# SF-539 CNS = system: SF-539 CNS
# OVCAR-4 ovarian = system: OVCAR-4 ovarian
# UACC-62 melanoma = system: UACC-62 melanoma
# IGROV1 ovarian = system: IGROV1 ovarian
# NCI-H23 lung = system: NCI-H23 lung
# SK-MEL-28 melanoma = system: SK-MEL-28 melanoma
# RXF 393 renal = system: RXF 393 renal
# DU-145 prostate = system: DU-145 prostate
# T-47D breast = system: T-47D breast
smiles,measurement,setting,value
CCCCCCCCCCCCCCC(C)CCC(=O)O (stereo not drawn),TGI,ACHN renal,> 100 µM
same,TGI,SF-539 CNS,> 100 µM
same,TGI,OVCAR-4 ovarian,> 100 µM
same,TGI,UACC-62 melanoma,> 100 µM
same,TGI,IGROV1 ovarian,> 100 µM
same,TGI,NCI-H23 lung,> 100 µM
same,TGI,SK-MEL-28 melanoma,> 100 µM
same,TGI,RXF 393 renal,> 100 µM
CN(C)c1ccc(O[Si](Oc2ccc(N(C)C)cc2)(Oc2ccc(N(C)C)cc2)Oc2ccc(N(C)C)cc2)cc1,TGI,ACHN renal,> 100 µM
same,TGI,SF-539 CNS,> 100 µM
same,TGI,OVCAR-4 ovarian,> 100 µM
same,TGI,UACC-62 melanoma,> 100 µM
same,TGI,IGROV1 ovarian,> 100 µM
same,TGI,NCI-H23 lung,> 100 µM
same,TGI,SK-MEL-28 melanoma,> 100 µM
c1ccc2c3c([nH]c2c1)C1C2CCCCN2C(c2ccncc2)N1CC3 (stereo not drawn),TGI,ACHN renal,> 100 µM
same,TGI,SF-539 CNS,> 100 µM
same,TGI,OVCAR-4 ovarian,> 100 µM
same,TGI,UACC-62 melanoma,> 100 µM
same,TGI,NCI-H23 lung,> 100 µM
same,TGI,SK-MEL-28 melanoma,> 100 µM
same,TGI,RXF 393 renal,83.4 µM
COc1ccc2c(c1)[n+](=O)c(C(C)=O)c(C)n2[O-],TGI,ACHN renal,> 100 µM
same,TGI,SF-539 CNS,> 100 µM
same,TGI,OVCAR-4 ovarian,> 100 µM
same,TGI,UACC-62 melanoma,> 100 µM
same,TGI,IGROV1 ovarian,> 100 µM
same,TGI,NCI-H23 lung,> 100 µM
same,TGI,SK-MEL-28 melanoma,> 100 µM
same,TGI,RXF 393 renal,> 100 µM
CN(C)c1ccc(N=C2C=CC(=C(C#N)C#N)c3ccccc32)cc1,TGI,ACHN renal,10.6 µM
same,TGI,SF-539 CNS,0.576 µM
same,TGI,OVCAR-4 ovarian,6.13 µM
same,TGI,UACC-62 melanoma,3.32 µM
same,TGI,IGROV1 ovarian,6.11 µM
same,TGI,NCI-H23 lung,4.19 µM
same,TGI,SK-MEL-28 melanoma,20.5 µM
same,TGI,RXF 393 renal,8.6 µM
same,TGI,DU-145 prostate,3.34 µM
[Cl-].[Gd+3].[O-]/N=C(\c1ccccc1)c1ccccn1.[O-]/N=C(\c1ccccc1)c1ccccn1.[O-]/N=C(\c1ccccc1)c1ccccn1,GI50,ACHN renal,64.3 µM
same,TGI,ACHN renal,> 100 µM
same,GI50,SF-539 CNS,> 100 µM
same,TGI,SF-539 CNS,> 100 µM
same,GI50,OVCAR-4 ovarian,43.7 µM
same,TGI,OVCAR-4 ovarian,> 100 µM
same,GI50,UACC-62 melanoma,40.7 µM
same,TGI,UACC-62 melanoma,> 100 µM
same,GI50,IGROV1 ovarian,81.4 µM
same,TGI,IGROV1 ovarian,> 100 µM
same,GI50,NCI-H23 lung,> 100 µM
same,TGI,NCI-H23 lung,> 100 µM
same,GI50,SK-MEL-28 melanoma,61.6 µM
same,TGI,SK-MEL-28 melanoma,> 100 µM
CC(=O)[O-].[Mn+3].[O-]c1ccc(Cl)cc1C=NCCN=Cc1cc(Cl)ccc1[O-],GI50,ACHN renal,> 100 µM
same,TGI,ACHN renal,> 100 µM
same,GI50,SF-539 CNS,36 µM
same,TGI,SF-539 CNS,74.3 µM
same,GI50,OVCAR-4 ovarian,> 100 µM
same,TGI,OVCAR-4 ovarian,> 100 µM
same,GI50,UACC-62 melanoma,> 100 µM
same,TGI,UACC-62 melanoma,> 100 µM
same,GI50,IGROV1 ovarian,7.99 µM
same,TGI,IGROV1 ovarian,54.6 µM
same,GI50,NCI-H23 lung,> 100 µM
same,TGI,NCI-H23 lung,> 100 µM
same,GI50,SK-MEL-28 melanoma,> 100 µM
same,TGI,SK-MEL-28 melanoma,> 100 µM
OCCCCC#Cc1ccccc1C#Cc1ccc(C(F)(F)F)cc1,GI50,ACHN renal,17.5 µM
same,TGI,ACHN renal,31.2 µM
same,GI50,SF-539 CNS,19.7 µM
same,TGI,SF-539 CNS,37.2 µM
same,GI50,OVCAR-4 ovarian,11.2 µM
same,TGI,OVCAR-4 ovarian,23.9 µM
same,GI50,T-47D breast,15.9 µM
same,TGI,T-47D breast,33.9 µM
same,GI50,UACC-62 melanoma,16 µM
same,TGI,UACC-62 melanoma,29.8 µM
same,GI50,IGROV1 ovarian,17.6 µM
same,TGI,IGROV1 ovarian,32 µM
same,GI50,NCI-H23 lung,16.8 µM
same,TGI,NCI-H23 lung,32.4 µM
same,GI50,SK-MEL-28 melanoma,8.4 µM
same,TGI,SK-MEL-28 melanoma,21.7 µM
same,GI50,DU-145 prostate,15.8 µM
same,TGI,DU-145 prostate,31.7 µM
COC(=O)[C@]1(C)CCC[C@]2(C)[C@@H]1CCC13C[C@@H](C=CO1)[C@@H](C)CC32O (stereo partly drawn),GI50,ACHN renal,> 100 µM
same,TGI,ACHN renal,> 100 µM
same,GI50,SF-539 CNS,0.0516 µM
same,TGI,SF-539 CNS,> 100 µM
same,GI50,OVCAR-4 ovarian,61.5 µM
same,TGI,OVCAR-4 ovarian,> 100 µM
same,GI50,UACC-62 melanoma,> 100 µM
same,TGI,UACC-62 melanoma,> 100 µM
same,GI50,IGROV1 ovarian,> 100 µM
same,TGI,IGROV1 ovarian,> 100 µM
same,GI50,NCI-H23 lung,20.3 µM
same,TGI,NCI-H23 lung,> 100 µM
same,GI50,SK-MEL-28 melanoma,> 100 µM
same,TGI,SK-MEL-28 melanoma,> 100 µM
same,GI50,RXF 393 renal,66.8 µM
same,TGI,RXF 393 renal,> 100 µM
same,GI50,DU-145 prostate,19.9 µM
same,TGI,DU-145 prostate,43.5 µM
Cc1nc(-n2nc(-c3ccccc3)cc2-c2ccccc2)sc1C(=O)/C=C/c1ccccc1,TGI,ACHN renal,> 100 µM
same,TGI,SF-539 CNS,> 100 µM
same,TGI,UACC-62 melanoma,> 100 µM
same,TGI,IGROV1 ovarian,> 100 µM
same,TGI,NCI-H23 lung,> 100 µM
same,TGI,SK-MEL-28 melanoma,> 100 µM
same,TGI,RXF 393 renal,> 100 µM
NNC(=O)N/N=C1\CN(c2ccc(Cl)cc2Cl)C(=O)C(=O)C1c1nc2ccccc2o1 (stereo not drawn),TGI,ACHN renal,> 100 µM
same,TGI,SF-539 CNS,> 100 µM
same,TGI,OVCAR-4 ovarian,> 100 µM
same,TGI,UACC-62 melanoma,> 100 µM
same,TGI,IGROV1 ovarian,> 100 µM
same,TGI,NCI-H23 lung,> 100 µM
same,TGI,SK-MEL-28 melanoma,> 100 µM
O=c1[nH]c2ccc([N+](=O)[O-])c(Cl)c2c2ccccc12,TGI,ACHN renal,18.9 µM
same,TGI,SF-539 CNS,4.64 µM
same,TGI,OVCAR-4 ovarian,24.7 µM
same,TGI,T-47D breast,73.7 µM
same,TGI,UACC-62 melanoma,15.5 µM
same,TGI,IGROV1 ovarian,28.9 µM
same,TGI,NCI-H23 lung,24.7 µM
same,TGI,SK-MEL-28 melanoma,25.8 µM
same,TGI,DU-145 prostate,11.7 µM
O=C1CNN=C(Cn2nc(-c3ccccc3)c3ccccc3c2=O)N1,TGI,ACHN renal,> 100 µM
same,TGI,SF-539 CNS,> 100 µM
same,TGI,OVCAR-4 ovarian,> 100 µM
same,TGI,UACC-62 melanoma,> 100 µM
same,TGI,IGROV1 ovarian,> 100 µM
same,TGI,NCI-H23 lung,> 100 µM
same,TGI,SK-MEL-28 melanoma,> 100 µM
COc1cc2cc3c(c(O)c2c(O)c1-c1c(OC)cc2cc4c(c(O)c2c1O)C(=O)O[C@H](C)C4)C(=O)O[C@H](C)C3,GI50,ACHN renal,24.7 µM
same,TGI,ACHN renal,66.7 µM
same,GI50,OVCAR-4 ovarian,22.4 µM
same,TGI,OVCAR-4 ovarian,> 100 µM
same,GI50,T-47D breast,23.3 µM
same,TGI,T-47D breast,57.2 µM
same,GI50,UACC-62 melanoma,17.1 µM
same,TGI,UACC-62 melanoma,32.5 µM
same,GI50,NCI-H23 lung,32.1 µM
same,TGI,NCI-H23 lung,> 100 µM
same,GI50,SK-MEL-28 melanoma,33 µM
same,TGI,SK-MEL-28 melanoma,99.1 µM
same,GI50,RXF 393 renal,24.4 µM
same,TGI,RXF 393 renal,> 100 µM
same,GI50,DU-145 prostate,15.9 µM
same,TGI,DU-145 prostate,31.2 µM
COc1ccc(-c2cc(-c3ccco3)c(C#N)c(=O)[nH]2)cc1,TGI,ACHN renal,> 100 µM
same,TGI,SF-539 CNS,53.9 µM
same,TGI,OVCAR-4 ovarian,> 100 µM
same,TGI,UACC-62 melanoma,> 100 µM
same,TGI,IGROV1 ovarian,> 100 µM
same,TGI,NCI-H23 lung,> 100 µM
same,TGI,SK-MEL-28 melanoma,> 100 µM
same,TGI,RXF 393 renal,> 100 µM
O=C(C(=O)c1cc(Br)ccc1O)c1cc(Br)ccc1O,GI50,ACHN renal,3.75 µM
same,TGI,ACHN renal,50 µM
same,GI50,SF-539 CNS,4.01 µM
same,TGI,SF-539 CNS,18.6 µM
same,GI50,OVCAR-4 ovarian,6.04 µM
same,TGI,OVCAR-4 ovarian,> 100 µM
same,GI50,T-47D breast,3.87 µM
same,TGI,T-47D breast,> 100 µM
same,GI50,UACC-62 melanoma,3.94 µM
same,TGI,UACC-62 melanoma,17 µM
same,GI50,IGROV1 ovarian,2.57 µM
same,TGI,IGROV1 ovarian,8.58 µM
same,GI50,NCI-H23 lung,3.38 µM
same,TGI,NCI-H23 lung,19.1 µM
same,GI50,SK-MEL-28 melanoma,8 µM
same,TGI,SK-MEL-28 melanoma,> 100 µM
same,GI50,DU-145 prostate,3.66 µM
same,TGI,DU-145 prostate,18.5 µM
COC(=O)c1sc(=NC(=S)N2CCCCC2)sc1C(=O)OC,TGI,ACHN renal,> 100 µM
same,TGI,SF-539 CNS,> 100 µM
same,TGI,OVCAR-4 ovarian,> 100 µM
same,TGI,UACC-62 melanoma,> 100 µM
same,TGI,IGROV1 ovarian,> 100 µM
same,TGI,SK-MEL-28 melanoma,> 100 µM
same,TGI,RXF 393 renal,> 100 µM
Nc1ccc(C(=O)/C=C/c2ccccc2O)cc1,TGI,ACHN renal,> 100 µM
same,TGI,SF-539 CNS,> 100 µM
same,TGI,OVCAR-4 ovarian,> 100 µM
same,TGI,UACC-62 melanoma,> 100 µM
same,TGI,IGROV1 ovarian,> 100 µM
same,TGI,NCI-H23 lung,> 100 µM
same,TGI,SK-MEL-28 melanoma,> 100 µM
same,TGI,RXF 393 renal,> 100 µM
COc1cc(CCc2ccc(OC(C)=O)cc2)cc(OC)c1OC,TGI,ACHN renal,> 100 µM
same,TGI,SF-539 CNS,> 100 µM
same,TGI,OVCAR-4 ovarian,> 100 µM
same,TGI,UACC-62 melanoma,> 100 µM
same,TGI,IGROV1 ovarian,> 100 µM
same,TGI,SK-MEL-28 melanoma,> 100 µM
same,TGI,RXF 393 renal,> 100 µM
CCOc1ccc(Nc2nc(-c3c(C)nc4ncccn34)cs2)cc1,GI50,ACHN renal,0.0767 µM
same,TGI,ACHN renal,19.5 µM
same,GI50,SF-539 CNS,0.0227 µM
same,TGI,SF-539 CNS,0.0822 µM
same,GI50,T-47D breast,1.04 µM
same,TGI,T-47D breast,17.1 µM
same,GI50,UACC-62 melanoma,< 0.01 µM
same,TGI,UACC-62 melanoma,12.8 µM
same,GI50,IGROV1 ovarian,0.0797 µM
same,TGI,IGROV1 ovarian,26.2 µM
same,GI50,NCI-H23 lung,0.0623 µM
same,TGI,NCI-H23 lung,22.2 µM
same,GI50,SK-MEL-28 melanoma,0.0673 µM
same,TGI,SK-MEL-28 melanoma,20.7 µM
same,GI50,DU-145 prostate,0.0431 µM
same,TGI,DU-145 prostate,19.2 µM
